From patent US20090197279A1, “MICROTUBULE SYNTHESIS AS A BIOMARKER” (KINEMED, INC., priority 2005, published 2009)

Key:
[1] = test system: hippocampal MT subpopulations; test: Tubulin abundance of MT subpopulations in hippocampus by Western blot for α-tubulin; type: in vivo, mouse; settings: 0.48 nmol glutamate ICVC; 24 hours; vs mock
Experimental: FIG. 7 depicts the effects of ICV glutamate on the relative amounts of MT subpopulations and on total protein synthesis in murine hippocampus. (A, B) Tubulin abundances are measured by Western blot analysis for α-tubulin at 8 hour (A) and 24 hours (B). Subpopulations were total extract (total), free tubulin dimers, tau-associated MTs, tau-nonassociated (MAP2/STOP) MTs and cold stable (CS) MTs. Mock and glutamate infused ICVC mice are shown (cf. FIGS. 6A and B). […] (C) Fractional synthesis of total hippocampal proteins. Glutamate increased protein synthesis versus mock-treated animals (*p<0.01); this effect was blocked by coadministration with 0.66 pmol of Rp-cAMP (**p<0.02).
(§1) Tubulin was purified using minor modifications of protocols described previously (Fanara, P., Oback, B., Ashman, K., Podtelejnikov, A., Brandt, R. Identification of MINUS, a small polypeptide that functions as a microtubule nucleation suppressor. EMBO J. 18, 565-577 (1999); Fanara, P. et al. In vivo measurement of microtubule dynamics using stable isotope labeling with heavy water. Effect of taxanes. J. Biol. Chem. 279, 49940-49947 (2004). Briefly, cultured neurons were gently scraped off culture plates, washed in phosphate-buffered saline (PBS), and homogenized in microtubule-stabilizing buffer. For purification ex vivo, mice were anesthetized with isoflurane and euthanized by cervical dislocation. Brains were rapidly removed and washed in microtubule-stabilizing buffer (MSB); hippocampi were dissected and gently homogenized in MSB. […] The relative abundance of tubulin in each preparation (Tubulin dimers and TAU5-bound, MAP2-bound, and unbound microtubule fractions) was quantified by Western blot, and tubulin from these fractions was further purified by ion exchange and size exclusion chromatography, as previously described (Fanara, P. et al. In vivo measurement of microtubule dynamics using stable isotope labeling with heavy water. Effect of taxanes. J. Biol. Chem. 279, 49940-49947 (2004)).

primary rat neurons = test: Microtubule dynamics in glutamate-stimulated cultures of primary rat neurons; type: cell-based; settings: parallel experiments, data not shown
Experimental: Rat brain hippocampus neuronal cells were obtained from Cambrex Bio Science (Walkersville, Md.). The neurons were grown in Neurobasal medium supplemented with 2 mM Glutamine, 100 U/ml penicillin/streptomycin- and 2% B27 in a humidified atmosphere of 10% CO2 at 37° C. for 14 days on a poly-D-lysine and laminin coated 10 cm^2 tissue culture dish.
During experimental manipulation of neural connectivity, the dynamic responses of dendritic microtubules to various stimuli are likely to differ from those of axonal shafts or of the cell body. In order to detect such differential responses by use of the invention disclosed herein, we cultured primary neurons from rat brain hippocampi and labeled newly synthesized tubulin by adding 5% ^2H2O in culture media for 24 hours. After separation of tubulin dimers and polymers in cytosolic extracts, we captured axonal growth cone and dendritic microtubules by sequential binding to immunoaffinity columns reactive with tau and MAP2, respectively, leaving only somatic and axonal shaft microtubules in the unbound fraction (FIG. 5A). Tubulin was purified further from each fraction, and label incorporation into Ala was measured by GC/MS (FIG. 5B). […] Free Ala in culture media was >80% equilibrated with ^2H2O (not shown). […]

microtubule polymer = test: Total abundance of microtubule polymer by Western blotting after CFC; type: in vivo, mouse; settings: conditioned mice, nocodazole 0.2 mg/kg; data not shown
Text: as §1, with “buffer.” for “buffer. For purification ex vivo, mice were anesthetized with isoflurane and euthanized by cervical dislocation. Brains were rapidly removed and washed in microtubule-stabilizing buffer (MSB); hippocampi were dissected and gently homogenized in MSB.”
To test the role of microtubule/tubulin exchange in hippocampus-dependent memory, we treated animals with nocodazole (0.2 mg/kg), a microtubule-depolymerizing agent, four hours prior to CFC training (FIG. 10A). […] The total abundance of microtubule polymer, as detected by Western blotting, was decreased as well (data not shown).

SMILES	abundance of CS-MTs, Western blot [1]	abundance of MAP2/STOP-MTs (MAP2-associated microtubules), Western blot [1]	abundance of tau-MTs, Western blot [1]	microtubule label incorporation pattern compared with in vivo (primary rat neurons)	total abundance of microtubule polymer (Western blotting) (microtubule polymer)
N[C@@H](CCC(=O)[O-])C(=O)[O-].[K+].[K+] [glutamate, potassium L-glutamate]	increased	increased	remained unchanged	identical results	
COC(=O)Nc1nc2ccc(C(=O)c3cccs3)cc2[nH]1 [nocodazole]					decreased
